Tests used:
[1] = Metabolic stability assay, human liver microsome and homogenate incubations; type: in vitro ADME; conditions: human liver homogenate or microsomes, LC/PDA/TOF-MS
Method: The in vitro metabolic stability of the compounds of the invention was determined for exemplified compounds using human liver microsome and homogenate incubations. The incubation time points used with or without appropriate cofactors were 0 min and 60 min. Samples were collected at both time points and substrates were detected using LC/PDA/TOF-MS. In vitro metabolic stability (% remaining after 60 min in human liver homogenate or microsomes) of the compounds were calculated and the results are summarized in Table 3.

[2] = biological target: T1, recombinant human 17β-HSD2 (Homo sapiens, UniProt P37059); test: Inhibition of recombinant human 17β-HSD2 (conversion of 3H-estradiol to estrone, HPLC); type: biochemical; conditions: inhibitor 1 μM; 50 nM estradiol, 1 mM NADH, 30 min at RT
T1 construct: made in house; host or cells: Sd9 (Sf9) insect cells, baculovirus (Bac to Bac Expression System); fractionated cell extract
T1 sequence (P37059 1-387): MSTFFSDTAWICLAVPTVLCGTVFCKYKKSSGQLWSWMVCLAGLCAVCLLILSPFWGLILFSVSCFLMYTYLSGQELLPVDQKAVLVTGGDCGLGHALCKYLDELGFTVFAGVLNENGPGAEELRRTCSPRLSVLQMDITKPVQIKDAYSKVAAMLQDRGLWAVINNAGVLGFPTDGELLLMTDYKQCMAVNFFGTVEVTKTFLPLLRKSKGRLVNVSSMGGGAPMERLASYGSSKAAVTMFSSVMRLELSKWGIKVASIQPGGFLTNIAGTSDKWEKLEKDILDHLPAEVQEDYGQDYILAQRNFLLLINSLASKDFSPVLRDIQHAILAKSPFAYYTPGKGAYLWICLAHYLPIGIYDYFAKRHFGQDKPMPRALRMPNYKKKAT
Method: 17β-HSD2 production and isolation: Similarly to 17β-HSD1 the Recombinant baculovirus was generated by the “Bac to Bac Expression System” (Invitrogen). Recombinant bacmid was transfected to Sd9 insect cells using “Cellfectin Reagent” (Invitrogen). 60 h later cells were harvested and supernatant were fractionated by the following protocol: • cells were dissolved into 40 ml of A-buffer (40 mM TRIS, pH8.0, 20% glycerol, 20 μM NAD, 0.4 mM PMSF, 150 mM NaCl, 0.5% dodecyl-β-maltoside+protease inhibitor cocktail) • cells were sonicated • lysate was incubated on ice for 15 min • lysate was centrifuged 5000 rpm 15 min, +4° C. • centrifugation of the supernatant 180 000 g 30 min, +4° C. • pellet was dissolved into 8 ml of A-buffer • not resuspended material was removed by centrifugation 5000 rpm 15 min, +4° C. • the clear supernatant was divided into 100 μl aliquots and were stored frozen until determination of enzymatic activity.
The amount of 17β-HSD2 was analysed by immunoblotting and total protein concentration of each extract batch was determined.
Assay—Inhibition of recombinant human 17β-HSD2: Recombinant protein (4 μg/ml) was incubated in 20 mM KH2PO4 pH 8.5 with 50 nM estradiol (including 800 000 cpm/ml of ^3H-estradiol) and 1 mM NADH for 30 min at RT, in the presence of the potential inhibitor at concentrations 1 μM or 0.1 μM. Inhibitor stock solutions were prepared in DMSO. Final concentration of DMSO was adjusted to 1% in all samples. The enzyme reaction was stopped by addition of 10% trichloroacetic acid (final concentration). Samples were centrifuged in a microtiter plate at 4000 rpm for 10 min. Supernatants were applied to reverse phase HPLC on a Waters Symmetry C18 column, equipped with a Waters Sentry Guard column. Isocratic HPLC runs were performed at RT at a flow rate of 1 ml/min in acetonitrile:water 48:52 as running solvent. Radioactivity was monitored in the eluate by a Packard Flow Scintillation Analyzer. Total radioactivity for estrone and estradiol were determined in each sample and percent conversion of estradiol to estrone was calculated according to the following formula:
(§1) Percent inhibition was calculated flowingly: % inhibition=100−% conversion

[3] = biological target: T2, recombinant human 17β-HSD1 (Homo sapiens, UniProt P14061); test: Inhibition of recombinant human 17β-HSD1 (conversion of 3H-estrone to estradiol, HPLC); type: biochemical; conditions: inhibitor 1 μM; 30 nM estrone, 1 mM NADPH, 30 min at RT; read-out: 17β-HDS1 Inhibition % at 1 μM
T2 construct: made in house; host or cells: Sd9 (Sf9) insect cells, baculovirus (Bac to Bac Expression System); microsomal fraction
T2 sequence (P14061 1-328): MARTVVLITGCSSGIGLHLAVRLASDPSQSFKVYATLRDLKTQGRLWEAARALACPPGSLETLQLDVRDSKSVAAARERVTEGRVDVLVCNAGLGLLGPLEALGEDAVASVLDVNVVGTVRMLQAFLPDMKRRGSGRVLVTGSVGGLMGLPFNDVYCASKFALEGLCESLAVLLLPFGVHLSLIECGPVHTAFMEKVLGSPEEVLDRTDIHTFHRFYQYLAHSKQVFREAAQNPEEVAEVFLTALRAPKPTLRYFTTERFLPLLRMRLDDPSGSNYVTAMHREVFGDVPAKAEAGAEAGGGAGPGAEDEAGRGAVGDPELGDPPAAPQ
Method: 17β-HSD1 production and isolation: Recombinant baculovirus was generated by the “Bac to Bac Expression System” (Invitrogen). Recombinant bacmid was transfected to Sd9 insect cells using “Cellfectin Reagent” (Invitrogen). 60 h later cells were harvested; the microsomal fraction was isolated as described by Puranen, T. J., Poutanen, M. H., Peltoketo, H. E., Vihko, P. T. and Vihko, R. K. (1994) Site-directed mutagenesis of the putative active site of human 17 β-hydroxysteroid dehydrogenase type 1. Biochem. J. 304: 289-293. Aliquots were stored frozen until determination of enzymatic activity.
Assay—Inhibition of recombinant human 17β-HSD1: Recombinant protein (1 μg/ml) was incubated in 20 mM KH2PO4 pH 7.4 with 30 nM estrone (including 800 000 cpm/ml of ^3H-estrone) and 1 mM NADPH for 30 min at RT, in the presence of the potential inhibitor at concentrations 1 μM or 0.1 μM. Inhibitor stock solutions were prepared in DMSO. Final concentration of DMSO was adjusted to 1% in all samples. The enzyme reaction was stopped by addition of 10% trichloroacetic acid (final concentration). Samples were centrifuged in a microtiter plate at 4000 rpm for 10 min. Supernatants were applied to reverse phase HPLC on a Waters Symmetry C18 column, equipped with a Waters Sentry Guard column. Isocratic HPLC runs were performed at RT at a flow rate of 1 ml/min in acetonitrile:water 48:52 as running solvent. Radioactivity was monitored in the eluate by a Packard Flow Scintillation Analyzer. Total radioactivity for estrone and estradiol were determined in each sample and percent conversion of estrone to estradiol was calculated according to the following formula:
as §1

Cc1cnc(NC(=O)CC[C@@H]2C/C(=N\O)[C@@]3(C)CCC4c5cc(C(C)(C)C)c(O)cc5CCC4C23)s1 (stereo partly drawn) [Compound 58, 3-{(13S,15R)-2-tert-Butyl-3-hydroxy-17-[(E)-hydroxyimino]-13-methyl-7,8,9,11,12,13,14,15,16,17-decahydro-6H-cyclopenta[a]phenanthren-15-yl}-N-(5-methylthiazol-2-yl)propanamide]
In vitro metabolic stability, % remaining after 60 min [1]: 100%

Cc1cnc(NC(=O)CC[C@@H]2C/C(=N\O)[C@@]3(C)CCC4c5cc([N+](=O)[O-])c(O)cc5CCC4C23)s1 (stereo partly drawn) [Compound 60, 3-{(13S,15R)-3-Hydroxy-2-nitro-17-[(E)-hydroxyimino]-13-methyl-7,8,9,11,12,13,14,15,16,17-decahydro-6H-cyclopenta[a]phenanthren-15-yl}-N-(5-methylthiazol-2-yl)propanamide]
In vitro metabolic stability, % remaining after 60 min [1]: 84%

Cc1cnc(NC(=O)CC[C@@H]2C/C(=N\O)[C@@]3(C)CCC4c5ccc(O)c(Br)c5CCC4C23)s1 (stereo partly drawn) [Compound 63, 3-{(13S,15R)-4-Bromo-3-hydroxy-17-[(E)-hydroxyimino]-13-methyl-7,8,9,11,12,13,14,15,16,17-decahydro-6H-cyclopenta[a]phenanthren-15-yl}-N-(5-methylthiazol-2-yl)propanamide]
In vitro metabolic stability, % remaining after 60 min [1]: 64%

Cc1cnc(NC(=O)CC[C@@H]2C/C(=N\OCC(=O)O)[C@@]3(C)CCC4c5ccc(O)cc5CCC4C23)s1 (stereo partly drawn) [Compound 109, [(13S,15R)-3-Hydroxy-13-methyl-15-[2-(5-methylthiazol-2-ylcarbamoyl)-ethyl]-6,7,8,9,11,12,13,14,15,16-decahydro-cyclopenta[a]phenanthren-(17E)-ylideneaminooxy]-acetic acid]
inhibition at 1 µM [2]: 0% | inhibition at 1 µM [3]: 56%

Cc1cnc(NC(=O)CC[C@@H]2C/C(=N\OCC(=O)O)[C@@]3(C)CCC4c5cc(C(C)(C)C)c(O)cc5CCC4C23)s1 (stereo partly drawn) [Compound 110, [(13S,15R)-2-tert-Butyl-3-hydroxy-13-methyl-15-[2-(5-methylthiazol-2-ylcarbamoyl)-ethyl]-6,7,8,9,11,12,13,14,15,16-decahydro-cyclopenta[a]phenanthren-(17E)-ylideneaminooxy]-acetic acid]
inhibition at 1 µM [2]: 7% | inhibition at 1 µM [3]: 70%

Cc1cnc(NC(=O)CC[C@@H]2C/C(=N\OCC(=O)O)[C@@]3(C)CCC4c5cc([N+](=O)[O-])c(O)cc5CCC4C23)s1 (stereo partly drawn) [Compound 111, [(13S,15R)-3-Hydroxy-13-methyl-2-nitro-15-[2-(5-methylthiazol-2-ylcarbamoyl)-ethyl]-6,7,8,9,11,12,13,14,15,16-decahydro-cyclopenta[a]phenanthren-(17E)-ylideneaminooxy]-acetic acid]
inhibition at 1 µM [2]: 0% | inhibition at 1 µM [3]: 55%

Cc1cnc(NC(=O)CC[C@@H]2C/C(=N\NC(N)=O)[C@@]3(C)CCC4c5ccc(O)cc5CCC4C23)s1 (stereo partly drawn) [Compound 112, 3-{(13S,15R)-3-Hydroxy-17-[(E)-N-urea-imino]-13-methyl-7,8,9,11,12,13,14,15,16,17-decahydro-6H-cyclopenta[a]phenanthren-15-yl}-N-(5-methylthiazol-2-yl)propanamide]
inhibition at 1 µM [2]: 5% | inhibition at 1 µM [3]: 83%

Cc1cnc(NC(=O)CC[C@@H]2C/C(=N\NC(N)=O)[C@@]3(C)CCC4c5cc(Br)c(O)c(Br)c5CCC4C23)s1 (stereo partly drawn) [Compound 113, 3-{(13S,15R)-2,4-Dibromo-3-hydroxy-17-[(E)-N-urea-imino]-13-methyl-7,8,9,11,12,13,14,15,16,17-decahydro-6H-cyclopenta[a]phenanthren-15-yl}-N-(5-methylthiazol-2-yl)propanamide]
inhibition at 1 µM [2]: 1% | inhibition at 1 µM [3]: 58%

Cc1cnc(NC(=O)CC[C@@H]2C/C(=N\O)[C@@]3(C)CCC4c5ccc6ocnc6c5CCC4C23)s1 (stereo partly drawn) [Compound 114, 3-{(7aS,10R)-8-[(E)-Hydroxyimino]-7a-methyl-6,7,7a,8,9,10,10a,10b,11,12-decahydro-5bH-3-oxa-1-aza-dicyclopenta[a,i]phenathren-10-yl}-N-(5-methylthiazol-2-yl)propanamide]
inhibition at 1 µM [2]: 5% | inhibition at 1 µM [3]: 70%

Cc1cnc(NC(=O)CC[C@@H]2c3conc3[C@@]3(C)CCC4c5cc(Br)c(O)c(Br)c5CCC4C23)s1 (some centres unmarked) [Compound 119]
inhibition at 1 µM [2]: 28% | inhibition at 1 µM [3]: 79%

Cc1cnc(NC(=O)CC[C@@H]2C/C(=N\CC(C)C)[C@@]3(C)CCC4c5ccc(O)cc5CCC4C23)s1 (stereo partly drawn) [Compound 121, 3-{(13S,15R)-3-Hydroxy-17-[(E)-isobutylimino]-13-methyl-7,8,9,11,12,13,14,15,16,17-decahydro-6H-cyclopenta[a]phenanthren-15-yl}-N-(5-methylthiazol-2-yl)propionamide]
inhibition at 1 µM [2]: 7% | inhibition at 1 µM [3]: 94%

COCC/N=C1\C[C@@H](CCC(=O)Nc2ncc(C)s2)C2C3CCc4cc(O)ccc4C3CC[C@]12C (stereo partly drawn) [Compound 122, 3-{(13S,15R)-3-Hydroxy-17-[(E)-2-methoxy-ethylimino]-13-methyl-7,8,9,11,12,13,14,15,16,17-decahydro-6H-cyclopenta[a]phenanthren-15-yl}-N-(5-methylthiazol-2-yl)propionamide]
inhibition at 1 µM [2]: 5% | inhibition at 1 µM [3]: 94%

COCC/N=C1\C[C@@H](CCC(=O)Nc2ncc(C)s2)C2C3CCc4cc(O)c(C(C)(C)C)cc4C3CC[C@]12C (stereo partly drawn) [Compound 123, 3-{(13S,15R)-2-tert-Butyl-3-hydroxy-17-[(E)-2-methoxy-ethylimino]-13-methyl-7,8,9,11,12,13,14,15,16,17-decahydro-6H-cyclopenta[a]phenanthren-15-yl}-N-(5-methylthiazol-2-yl)propionamide]
inhibition at 1 µM [2]: 30% | inhibition at 1 µM [3]: 94%

From US20170081357A1, “[…] ACTIVE 17-NITROGEN SUBSTITUTED ESTRATREINTHIAZOLE DERIVATIVES AS INHIBITORS OF 17.BETA-HYDROXYSTEROID DEHYDROGENASE” (FORENDO PHARMA LTD, priority 2013, published 2017)
